Source: ChEMBL document CHEMBL3885881, “DrugMatrix”

Organism: Rattus norvegicus
Test: DrugMatrix - Regimen: Daily Repeat
Format: toxicity, organism-based, Sprague-Dawley
Design: regimen Daily Repeat, gender Male, age 6-8 weeks
Conditions: in vivo, po, 56 mg/kg, route oral GAVAGE, […]
[1] = 72 h, tissue Plasma, dose level Low, time 3 day
[2] = 120 h, tissue Blood, dose level High, time 5 day
[3] = 120 h, tissue Blood, dose level Low, time 5 day
[4] = 120 h, tissue Plasma, dose level High, time 5 day
[5] = 120 h, tissue Plasma, dose level Low, time 5 day
[6] = tissue Blood, dose level High, time 28 day
[7] = tissue Plasma, dose level High, time 28 day

SMILES: NC[C@@H]1O[C@H](O[C@H]2[C@@H](O)[C@H](O[C@@H]3[C@@H](O)[C@H](N)C[C@H](N)[C@H]3O[C@H]3O[C@H](CN)[C@@H](O)[C@H](O)[C@H]3N)O[C@@H]2CO)[C@H](N)[C@@H](O)[C@@H]1O [FRAMYCETIN]
- CREATININE [1]: 0.19 mg/dL
- GLUCOSE [1]: 156.33 mg/dL
- LACTATE DEHYDROGENASE [1]: 107.33 u/L
- LIPASE [1]: 10.33 u/L
- PHOSPHORUS [1]: 10.8 mg/dL
- POTASSIUM [1]: 5.83 MEQ/L
- SODIUM [1]: 143.17 MEQ/L
- TOTAL BILIRUBIN [1]: 0.1 mg/dL
- TOTAL PROTEIN [1]: 5.97 G/DL
- URIC ACID [1]: 0.4 mg/dL
- BASOPHIL [2]: 0.36%
- EOSINOPHIL [2]: 0.6%
- ERYTHROCYTE COUNT [2]: 7.45 x10E6/uL
- HEMATOCRIT [2]: 49.44%
- HEMOGLOBIN [2]: 15.6 G/DL
- LEUKOCYTE COUNT [2]: 6.84 x10E3/uL
- LYMPHOCYTE [2]: 82.08%
- MEAN CORPUSCULAR HEMOGLOBIN [2]: 20.94 pg
- MEAN CORPUSCULAR HEMOGLOBIN CONCENTRATION [2]: 31.58 G/DL
- MEAN CORPUSCULAR VOLUME [2]: 66.34 fL
- MONOCYTE [2]: 1.68%
- NEUTROPHIL [2]: 14.3%
- PLATELET COUNT [2]: 1274.6 x10E3/uL
- ABSOLUTE BASOPHIL [3]: 0 CELLS/uL
- ABSOLUTE EOSINOPHIL [3]: 0 CELLS/uL
- ABSOLUTE LYMPHOCYTE [3]: 7805 CELLS/uL
- ABSOLUTE MONOCYTE [3]: 76.67 CELLS/uL
- ABSOLUTE SEGMENTED NEUTROPHIL [3]: 785 CELLS/uL
- BASOPHIL [3]: 0%
- EOSINOPHIL [3]: 0%
- ERYTHROCYTE COUNT [3]: 5.67 x10E6/uL
- HEMATOCRIT [3]: 34.13%
- HEMOGLOBIN [3]: 13.3 G/DL
- LEUKOCYTE COUNT [3]: 8.67 x10E3/uL
- LYMPHOCYTE [3]: 89.33%
- MEAN CORPUSCULAR HEMOGLOBIN [3]: 23.47 pg
- MEAN CORPUSCULAR HEMOGLOBIN CONCENTRATION [3]: 38.97 G/DL
- MEAN CORPUSCULAR VOLUME [3]: 60.2 fL
- MONOCYTE [3]: 1%
- NEUTROPHIL [3]: 9.67%
- NUCLEATED RED BLOOD CELLS [3]: 0 /100WBC
- PLATELET COUNT [3]: 1077 x10E3/uL
- ALANINE AMINOTRANSFERASE [4]: 29 u/L
- ALBUMIN [4]: 3.74 G/DL
- ALKALINE PHOSPHATASE [4]: 336 u/L
- ASPARTATE AMINOTRANSFERASE [4]: 73.8 u/L
- BLOOD UREA NITROGEN [4]: 6.6 mg/dL
- CHLORIDE [4]: 109.6 MEQ/L
- CHOLESTEROL [4]: 60.6 mg/dL
- CREATINE PHOSPHOKINASE [4]: 307 u/L
- CREATININE [4]: 0.28 mg/dL
- GLUCOSE [4]: 128.6 mg/dL
- PHOSPHORUS [4]: 13.88 mg/dL
- POTASSIUM [4]: 6.96 MEQ/L
- SODIUM [4]: 151.8 MEQ/L
- TOTAL BILIRUBIN [4]: 0.16 mg/dL
- TOTAL PROTEIN [4]: 6.22 G/DL
- ALANINE AMINOTRANSFERASE [5]: 68.67 u/L
- ALBUMIN [5]: 4.03 G/DL
- ALKALINE PHOSPHATASE [5]: 434 u/L
- ASPARTATE AMINOTRANSFERASE [5]: 94.67 u/L
- BLOOD UREA NITROGEN [5]: 12 mg/dL
- CARBON DIOXIDE [5]: 26.33 mmol/L
- CHLORIDE [5]: 104 MEQ/L
- CHOLESTEROL [5]: 74.67 mg/dL
- CREATINE PHOSPHOKINASE [5]: 481.67 u/L
- CREATININE [5]: 0.23 mg/dL
- GLUCOSE [5]: 156.33 mg/dL
- LACTATE DEHYDROGENASE [5]: 224 u/L
- LIPASE [5]: 10.33 u/L
- PHOSPHORUS [5]: 10.57 mg/dL
- POTASSIUM [5]: 6.71 MEQ/L
- SODIUM [5]: 148.83 MEQ/L
- TOTAL BILIRUBIN [5]: 0.17 mg/dL
- TOTAL PROTEIN [5]: 6.03 G/DL
- URIC ACID [5]: 1.13 mg/dL
- BASOPHIL [6]: 0.48%
- EOSINOPHIL [6]: 0.51%
- ERYTHROCYTE COUNT [6]: 8.01 x10E6/uL
- HEMATOCRIT [6]: 48.92%
- HEMOGLOBIN [6]: 15.88 G/DL
- LEUKOCYTE COUNT [6]: 12.82 x10E3/uL
- LYMPHOCYTE [6]: 83.46%
- MEAN CORPUSCULAR HEMOGLOBIN [6]: 19.85 pg
- MEAN CORPUSCULAR HEMOGLOBIN CONCENTRATION [6]: 32.47 G/DL
- MEAN CORPUSCULAR VOLUME [6]: 61.12 fL
- MONOCYTE [6]: 1.54%
- NEUTROPHIL [6]: 12.95%
- PLATELET COUNT [6]: 1208.1 x10E3/uL
- ALANINE AMINOTRANSFERASE [7]: 26.9 u/L
- ALBUMIN [7]: 3.85 G/DL
- ALKALINE PHOSPHATASE [7]: 200.9 u/L
- ASPARTATE AMINOTRANSFERASE [7]: 62.4 u/L
- BLOOD UREA NITROGEN [7]: 11 mg/dL
- CHLORIDE [7]: 107.1 MEQ/L
- CHOLESTEROL [7]: 54.5 mg/dL
- CREATINE PHOSPHOKINASE [7]: 177.2 u/L
- CREATININE [7]: 0.38 mg/dL
- GLUCOSE [7]: 135.2 mg/dL
- PHOSPHORUS [7]: 11.16 mg/dL
- POTASSIUM [7]: 6.5 MEQ/L
- SODIUM [7]: 151.5 MEQ/L
- TOTAL BILIRUBIN [7]: 0.22 mg/dL
- TOTAL PROTEIN [7]: 6.52 G/DL
